System: DR0301-restricted E2_281-300-specific T-cell line
Assay: Tetramer staining of sorted T-cell line with peptide-loaded DR0301 tetramers
Format: cell-based, human
Details: quadrant boundary set by unloaded tetramer (Figure 2B)

Q: How did the “Staining of T-cell line with tetramers loaded with peptide” value turn out when “E2_285-300: truncated version of E2_281-300; minimal epitope” was run?
A: could be stained

— PMC3124771 (Journal of immunology (Baltimore, Md. : 1950), 2011)
